Experimental data taken from BindingDB's records for doi:10.1021/jm970377o (Abbott Laboratories, 1998).

Assay: Compound was evaluated for functional potency and efficacy at human muscle type Nicotinic acetylcholine receptor in TE671 cells

Q: Which EC50 does the source give for `CC(=O)C1=CC[N+](C)(C)CC1` [4-Acetyl-1,1-dimethyl-1,2,3,6-tetrahydro-pyridinium; iodide] here?
A: 100 nM
